Source: patent US8697687B2, “Treating diseases mediated by blockade of the epithelial sodium channel with pyrazine-2-carboxamide derivatives” (Novartis AG, priority 2007, dated 2014)

Molecular target: T1, epithelial sodium channel (ENaC) (Homo sapiens, UniProt P37088+P51168+P51170)
T1 construct: host or cells: primary Human Bronchial Epithelial cells (HBECs), air-liquid interface culture
T1 sequence (P37088 1-669): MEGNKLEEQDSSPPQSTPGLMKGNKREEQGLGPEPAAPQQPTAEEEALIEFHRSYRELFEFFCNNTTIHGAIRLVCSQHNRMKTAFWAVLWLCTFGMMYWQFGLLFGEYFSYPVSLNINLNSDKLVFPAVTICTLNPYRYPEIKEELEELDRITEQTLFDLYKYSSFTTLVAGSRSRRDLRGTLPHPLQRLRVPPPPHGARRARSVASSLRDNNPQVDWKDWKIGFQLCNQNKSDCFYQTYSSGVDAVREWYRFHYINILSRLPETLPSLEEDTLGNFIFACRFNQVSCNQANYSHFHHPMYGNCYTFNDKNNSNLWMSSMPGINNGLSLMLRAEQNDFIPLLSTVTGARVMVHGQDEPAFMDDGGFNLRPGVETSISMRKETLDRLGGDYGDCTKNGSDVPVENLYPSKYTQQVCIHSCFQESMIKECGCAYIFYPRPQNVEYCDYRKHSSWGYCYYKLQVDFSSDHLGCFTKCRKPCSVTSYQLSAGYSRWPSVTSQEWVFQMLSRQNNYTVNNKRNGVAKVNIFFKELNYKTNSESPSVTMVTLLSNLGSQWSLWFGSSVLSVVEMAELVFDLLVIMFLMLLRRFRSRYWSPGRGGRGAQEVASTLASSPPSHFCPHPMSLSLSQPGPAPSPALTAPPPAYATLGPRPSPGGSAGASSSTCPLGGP
T1 sequence (P51168 1-640): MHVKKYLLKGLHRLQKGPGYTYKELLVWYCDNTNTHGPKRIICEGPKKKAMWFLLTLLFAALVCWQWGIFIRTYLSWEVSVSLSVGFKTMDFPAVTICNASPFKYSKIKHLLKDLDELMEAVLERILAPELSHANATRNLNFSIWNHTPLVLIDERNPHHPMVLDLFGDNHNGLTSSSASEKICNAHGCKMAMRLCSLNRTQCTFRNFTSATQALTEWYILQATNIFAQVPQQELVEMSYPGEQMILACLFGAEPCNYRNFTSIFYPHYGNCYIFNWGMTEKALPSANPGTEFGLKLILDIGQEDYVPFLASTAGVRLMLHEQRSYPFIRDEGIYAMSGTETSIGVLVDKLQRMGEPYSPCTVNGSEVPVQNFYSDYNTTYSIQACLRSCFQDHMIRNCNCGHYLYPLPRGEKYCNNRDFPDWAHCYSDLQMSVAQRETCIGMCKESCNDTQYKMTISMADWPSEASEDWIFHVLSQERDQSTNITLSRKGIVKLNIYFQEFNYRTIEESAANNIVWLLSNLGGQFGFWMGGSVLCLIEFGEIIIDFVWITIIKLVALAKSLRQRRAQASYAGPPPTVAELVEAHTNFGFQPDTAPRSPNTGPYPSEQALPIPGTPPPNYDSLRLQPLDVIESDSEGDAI
T1 sequence (P51170 1-649): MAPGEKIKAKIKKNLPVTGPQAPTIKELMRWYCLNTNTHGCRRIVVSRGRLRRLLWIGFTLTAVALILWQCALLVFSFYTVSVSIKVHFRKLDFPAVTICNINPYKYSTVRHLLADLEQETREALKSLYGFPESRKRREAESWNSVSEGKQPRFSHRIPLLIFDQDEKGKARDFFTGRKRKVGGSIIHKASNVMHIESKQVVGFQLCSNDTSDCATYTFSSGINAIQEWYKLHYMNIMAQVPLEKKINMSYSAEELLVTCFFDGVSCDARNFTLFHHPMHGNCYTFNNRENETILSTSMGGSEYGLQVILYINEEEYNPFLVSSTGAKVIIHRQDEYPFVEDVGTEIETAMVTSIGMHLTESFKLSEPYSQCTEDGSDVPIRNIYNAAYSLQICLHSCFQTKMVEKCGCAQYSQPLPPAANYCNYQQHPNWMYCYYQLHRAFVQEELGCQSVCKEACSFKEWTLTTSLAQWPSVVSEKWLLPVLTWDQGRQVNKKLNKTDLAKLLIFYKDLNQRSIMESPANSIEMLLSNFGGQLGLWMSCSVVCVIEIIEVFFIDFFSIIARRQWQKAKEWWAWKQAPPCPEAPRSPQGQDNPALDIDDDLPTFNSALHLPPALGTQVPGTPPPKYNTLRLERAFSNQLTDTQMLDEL
Experiment: Short circuit current (ISC) measurements in Human Bronchial Epithelial cells, inhibition of amiloride-sensitive ISC
Type: cell-based
Conditions: not given
Description: Compounds of formula (I) and their pharmaceutically acceptable salts, hereinafter referred to alternatively as “agents of the invention”, are useful as pharmaceuticals. In particular, the compounds have good ENaC blocker activity and may be tested in the following assays.
Human Bronchial Epithelial cells (HBECs) (Cambrex) were cultured under air-liquid interface conditions to provide a well differentiated mucociliary phenotype.
HBECs were cultured using a modification of the method described by Gray and colleagues (Gray et al., 1996). Cells were seeded in plastic T-162 flasks and were grown in bronchial epithelial cell growth medium (BEGM; Cambrex) supplemented with bovine pituitary extract (52 μg/mL), hydrocortisone (0.5 μg/mL), human recombinant epidermal growth factor (0.5 ng/mL), epinephrine (0.5 μg/mL), transferrin (10 μg/mL), insulin (5 μg/mL), retinoic acid (0.1 μg/mL), triiodothyronine ([…]), gentamycin (50 μg/mL) and amphotericin B (50 ng/mL). Medium was changed every 48 hours until cells were 90% confluent. Cells were then passaged and seeded (8.25×10^5 cells/insert) on polycarbonate Snapwell inserts (Costar) in differentiation media containing 50% DMEM in BEGM with the same supplements as above but without triiodothyronine and a final retinoic acid concentration of 50 nM (all-trans retinoic acid). Cells were maintained submerged for the first 7 days in culture, after which time they were exposed to an apical air interface for the remainder of the culture period. At this time, media was changed to DMEM:F12 media containing 2% v/v Ultroser G for the remainder of culture. Amphotericin B was removed from all media 3 feeds prior to use in the Using Chambers. Cells were used between days 7 and 21 after establishment of the apical-air interface. At all stages of culture, cells were maintained at 37° C. in 5% CO2 in an air incubator.
Short Circuit Current (ISC) Measurements
Snapwell inserts were mounted in Vertical Diffusion Chambers (Costar) and were bathed with continuously gassed Ringer solution (5% CO2 in O2; pH 7.4) maintained at 37° C. containing (in mM): 120 NaCl, 25 NaHCO3, 3.3 KH2PO4, 0.8 K2HPO4, 1.2 CaCl2, 1.2 MgCl2, and 10 glucose. The solution osmolarity was between 280 and 300 mOsmol/kg H2O for all physiological salt solutions used. Cells were voltage clamped to 0 mV (model EVC4000; WPI). RT was measured by applying a 1- or 2-mV pulse at 30-s intervals and calculating RT by Ohm's law. Data were recorded using a PowerLab workstation (ADInstruments).
Test compounds were prepared as a 10 mM stock solution in DMSO (95%). Serial 3-fold dilutions were freshly prepared in an appropriate vehicle (distilled H2O or Ringers solution). The initial concentration was added to the apical chamber as a 1000× concentrate in 5 μL, resulting in a final 1× concentration the 5 mL volume of the Ussing chamber. Subsequent additions of compound were added in a 3.3 μL volume of the 1000× serially diluted stock solution. At the completion of the concentration-response experiment, amiloride (10 μM) was added into the apical chamber to enable the total amiloride-sensitive current to be measured. An amiloride control IC50 was established at the start of each experiment.
Results are expressed as the mean % inhibition of the amiloride-sensitive ISC. Concentration-response curves were plotted and IC50 values generated using GraphPad Prism 3.02. Cell inserts were typically run in duplicate and the IC50 calculated on the mean % inhibition data.

Compound	IC50 [nM]
Nc1nc(N)c(C(=O)/N=C2\NCC3(CCN(C(=O)c4ccc(C(=O)N5CCC6(CC5)CN/C(=N\C(=O)c5nc(Cl)c(N)nc5N)N6)cc4)CC3)N2)nc1Cl [Example 96]	37

Same assay, conditions: inhibition of the amiloride-sensitive ISC; Human Bronchial Epithelial cells (HBECs) at air-liquid interface; compound added to apical chamber; read-out: IC50

IC50 [nM]	Compound
13	CC(C)NC(=O)Nc1cccc(C(=O)N2CCC3(CC2)CN/C(=N\C(=O)c2nc(Cl)c(N)nc2N)N3)c1 [Example 43, 3,5-Diamino-6-chloro-pyrazine-2-carboxylic acid [8-[3-(3-isopropyl-ureido)-benzoyl]-1,3,8-triaza-spiro[4.5]dec-(2E)-ylidene]-amide]
29.5	Nc1nc(N)c(C(=O)/N=C2\NCC3(CCN(C(=O)Cc4csc5ccccc45)CC3)N2)nc1Cl [Example 44, 3,5-Diamino-6-chloro-pyrazine-2-carboxylic acid [8-(2-Benzo[b]thiophen-3-yl-acetyl)-1,3,8-triaza-spiro[4.5]dec-(2E)-ylidene]-Amide]
119	Cc1oc(-c2ccccc2)nc1COc1ccc(S(=O)(=O)N2CCC3(CC2)CN/C(=N\C(=O)c2nc(Cl)c(N)nc2N)N3)cc1 [Example 238, 3,5-Diamino-6-chloro-pyrazine-2-carboxylic acid [8-[4-(5-methyl-2-phenyl-oxazol-4-ylmethoxy)-benzenesulfonyl]-1,3,8-triaza-spiro[4.5]dec-(2E)-ylidene]-amide]
65	Nc1nc(N)c(C(=O)/N=C2/NC[C@H](CCCCNC(=O)OCc3ccccc3)N2)nc1Cl [Example 5, (4-{(S)-2-[(E)-3,5-Diamino-6-chloro-pyrazine-2-carbonylimino]-imidazolidin-4-yl}-butyl)-carbamic acid benzyl ester]
33.5	Nc1nc(N)c(C(=O)/N=C2/NC[C@@H](CCCc3ccc(OCC(=O)N4CCOCC4)cc3)N2)nc1Cl [Example 23, 3,5-Diamino-6-chloro-pyrazine-2-carboxylic acid [(R)-4-{3-[4-(2-morpholin-4-yl-2-oxo-ethoxy)-phenyl]-propyl}-imidazolidin-(2Z)-ylidene]-amide]
16	Cc1ccc(S(=O)(=O)n2ccc(C(=O)N3CCC4(CC3)CN/C(=N\C(=O)c3nc(Cl)c(N)nc3N)N4)c2)cc1 [Example 147, 3,5-Diamino-6-chloro-pyrazine-2-carboxylic acid [8-[1-(toluene-4-sulfonyl)-1H-pyrrole-3-carbonyl]-1,3,8-triaza-spiro[4.5]dec-(2E)-ylidene]-amide]
42.6	Nc1nc(N)c(C(=O)/N=C2\NCC3(CCN(C(=O)C4CC(=O)N(CCCn5cccc5)C4)CC3)N2)nc1Cl (stereo not drawn) [Example 45, 3,5-Diamino-6-chloro-pyrazine-2-carboxylic acid [8-[5-oxo-1-(3-pyrrol-1-yl-propyl)-pyrrolidine-3-carbonyl]-1,3,8-triaza-spiro[4.5]dec-(2E)-ylidene]-amide]
36	Nc1nc(N)c(C(=O)/N=C2\NCC3(CCN(C(=O)NCc4ccccc4)CC3)N2)nc1Cl [Example 215, 2-[(E)-3,5-Diamino-6-chloro-pyrazine-2-carbonylimino]-1,3,8-triaza-spiro[4.5]decane-8-carboxylic acid benzylamide]
93.5	Nc1nc(N)c(C(=O)/N=C2\NCC3(CCN(C(=O)NCCCc4ccccn4)CC3)N2)nc1Cl [Example 228, 2-[(E)-3,5-Diamino-6-chloro-pyrazine-2-carbonylimino]-1,3,8-triaza-spiro[4.5]decane-8-carboxylic acid (3-pyridin-2-yl-propyl)-amide]
54	Nc1nc(N)c(C(=O)/N=C2\NCC3(CCN(S(=O)(=O)Cc4ccccc4)CC3)N2)nc1Cl [Example 232, 3,5-Diamino-6-chloro-pyrazine-2-carboxylic acid [8-phenylmethanesulfonyl-1,3,8-triaza-spiro[4.5]dec-(2E)-ylidene]-amide]

Compound	IC50 [nM]
CC(C)COC1CCN(S(=O)(=O)c2cccc(C(=O)N3CCC4(CC3)CN/C(=N\C(=O)c3nc(Cl)c(N)nc3N)N4)c2)CC1 [Example 126, 3,5-Diamino-6-chloro-pyrazine-2-carboxylic acid [8-[3-(4-isobutoxy-piperidine-1-sulfonyl)-benzoyl]-1,3,8-triaza-spiro[4.5]dec-(2E)-ylidene]-amide]	25
